These results are taken from patent publication US10617680B2 (CELGENE QUANTICEL RESEARCH, INC., priority 2017, dated 2020).

The target in one experiment is BRD4 (Homo sapiens (Human), UniProt O60885). The experiment can be described thus: In vitro enzyme inhibition assay - BRD4 inhibition. Type of experiment: binding. Conditions: BRD4 BD1, Table 30.
The target of another experiment is CBP (Homo sapiens (Human), UniProt Q92793). Nature of the experiment: In vitro CBP inhibition (AlphaScreen, biotinylated H4-tetraacetyl peptide). Type of experiment: binding. The method, boiled down: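 His-tagged CBP expressed in E. coli (50 nM final) incubated with biotinylated H4K5/8/12/16(Ac) peptide (20 nM final) in 50 mM HEPES pH 7.3, 10 mM NaCl, 0.25 mM TCEP, 0.1% BSA, 0.005% Brij-35, 0.4% DMSO, 20 min at room temp.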
Chain of CBP (Q92793 1081-1197): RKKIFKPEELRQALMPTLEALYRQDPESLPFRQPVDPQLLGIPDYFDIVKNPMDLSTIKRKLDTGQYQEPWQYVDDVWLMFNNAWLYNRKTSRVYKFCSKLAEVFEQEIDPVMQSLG
For orientation: Bead proximity is the source of the signal in Alpha formats.

Setting [1] is: AlphaScreen, Table 29, read-out: CBP IC50.
[2] abbreviates: Table 30, read-out: CRREBBP IC50.

pIC50: −log10 of the molar value. Where two headings read alike, the source gives them in different places. Some results are limits rather than exact numbers.

By pIC50 is commonly meant −log10 of the IC50, conventionally taken in molar units. Consider `CC(c1ccccc1)n1cc(-c2cn(C)c(=O)cc2N2CCCC2)cn1` (stereo not drawn) [Example 41, 1-methyl-5-(1-(1-phenylethyl)-1H-pyrazol-4-yl)-4-(pyrrolidin-1-yl) pyridin-2(1H)-one], for which the pIC50 at BRD4 is 5.30 to 6.30; on CBP (setting [1]) it was > 6.30; on CBP (setting [2]), > 6.30.

For the compound `Cn1cc(-c2cnn(Cc3ccccc3)c2)c(-n2ccnc2)cc1=O` [Example 94, 5-(1-benzyl-1H-pyrazol-4-yl)-4-(1H-imidazol-1-yl)-1-methyl-pyridin-2(1H)-one], the pIC50 is < 5.30 on BRD4, > 6.30 at CBP (setting [1]) and > 6.30 at CBP (setting [2]).

As for `Cn1cc(-c2cnn(Cc3ccccc3)c2)c(N2CC[C@@H](C(=O)O)C2)cc1=O` [Example 74, (R)-1-(5-(1-benzyl-1H-pyrazol-4-yl)-1-methyl-2-oxo-1,2-dihydro-pyridin-4-yl)pyrrolidine-3-carboxylic acid], the pIC50 is < 5.30 at BRD4, > 6.30 at CBP (setting [1]) and > 6.30 on CBP (setting [2]).

`Cn1cc(-c2cnn(CS(C)(=O)=O)c2)c(-c2ccccc2)cc1=O` [Example 129, 1-methyl-5-(1-((methyl-sulfonyl)-methyl)-1H-pyrazol-4-yl)-4-phenylpyridin-2(1H)-one]: the figures for the negative-log IC50 (pIC50) against BRD4, at CBP (setting [1]) and at CBP (setting [2]) were < 5.30, > 6.30 and > 6.30, respectively.

Take `CCNc1ncc(-c2cc(=O)n(C)cc2-c2cnn(-c3ccccc3C#N)c2)cn1` [Example 323, 2-(4-(4-(2-(ethylamino)pyrimidin-5-yl)-1-methyl-6-oxo-1,6-dihydropyridin-3-yl)-1H-pyrazol-1-yl)benzonitrile]: the negative-log IC50 (pIC50) was 5.30 to 6.30 at BRD4, > 6.30 at CBP (setting [1]) and > 6.30 at CBP (setting [2]).

Turning to `Cc1cc(-c2cc(=O)n(C)cc2-c2cnn(Cc3ccccc3)c2)[nH]n1` [Example 115, 5-(1-benzyl-1H-pyrazol-4-yl)-1-methyl-4-(3-methyl-1H-pyrazol-5-yl) pyridin-2(1H)-one], the negative logarithm of the IC50 (pIC50) at BRD4 was < 5.30; at CBP (setting [1]) it was > 6.30; on CBP (setting [2]), > 6.30.

As for `Cn1cc(-c2cnn(-c3ccccc3C(=O)O)c2)c(-c2ccccc2)cc1=O` [Example 223, 2-[4-(1-Methyl-6-oxo-4-phenyl-1,6-dihydro-pyridin-3-yl)-pyrazol-1-yl]-benzoic acid], the pIC50 was < 5.30 against BRD4, > 6.30 at CBP (setting [1]) and > 6.30 on CBP (setting [2]).

`Cn1cc(-c2cnn(Cc3ccccc3)c2)c(-c2ccon2)cc1=O` [Example 121, 5-(1-benzyl-1H-pyrazol-4-yl)-4-(isoxazol-3-yl)-1-methyl-pyridin-2(1H)-one]: the negative-log IC50 (pIC50) at BRD4 is < 5.30; at CBP (setting [1]), > 6.30; on CBP (setting [2]), > 6.30.
